Measurements taken from PubChem BioAssay (NCI).
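Cultured in 96-well plates, cells were exposed to test compound for 48 hours across five concentrations. At the TGI there is no net growth.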

Tests used:
Test in all cases: NCI-60 cell line screen, 48 h
786-0 renal = tested on: 786-0 renal
A498 renal = tested on: A498 renal
A549 NSCLC = tested on: A549 NSCLC
ACHN renal = tested on: ACHN renal
BT-549 breast = tested on: BT-549 breast
CAKI-1 renal = tested on: CAKI-1 renal
CCRF-CEM leukemia = tested on: CCRF-CEM leukemia
COLO 205 colon = tested on: COLO 205 colon
DU-145 prostate = tested on: DU-145 prostate
EKVX NSCLC = tested on: EKVX NSCLC
HCC-2998 colon = tested on: HCC-2998 colon
HCT-116 colon = tested on: HCT-116 colon
HCT-15 colon = tested on: HCT-15 colon
HL-60(TB) leukemia = tested on: HL-60(TB) leukemia
HOP-62 NSCLC = tested on: HOP-62 NSCLC
HOP-92 NSCLC = tested on: HOP-92 NSCLC
HS 578T breast = tested on: HS 578T breast
HT29 colon = tested on: HT29 colon
IGROV1 ovarian = tested on: IGROV1 ovarian
K-562 leukemia = tested on: K-562 leukemia
KM12 colon = tested on: KM12 colon
LOX IMVI melanoma = tested on: LOX IMVI melanoma
M14 melanoma = tested on: M14 melanoma
MALME-3M melanoma = tested on: MALME-3M melanoma
MCF7 breast = tested on: MCF7 breast
MDA-MB-231 breast = tested on: MDA-MB-231 breast
MDA-MB-435 = tested on: MDA-MB-435
MDA-N = tested on: MDA-N
MOLT-4 leukemia = tested on: MOLT-4 leukemia
NCI-H226 lung = tested on: NCI-H226 lung
NCI-H23 lung = tested on: NCI-H23 lung
NCI-H460 lung = tested on: NCI-H460 lung
NCI-H522 lung = tested on: NCI-H522 lung
NCI/ADR-RES ovarian = tested on: NCI/ADR-RES ovarian
OVCAR-3 ovarian = tested on: OVCAR-3 ovarian
OVCAR-4 ovarian = tested on: OVCAR-4 ovarian
OVCAR-5 ovarian = tested on: OVCAR-5 ovarian
OVCAR-8 ovarian = tested on: OVCAR-8 ovarian
PC-3 prostate = tested on: PC-3 prostate
RPMI-8226 leukemia = tested on: RPMI-8226 leukemia
RXF 393 renal = tested on: RXF 393 renal
SF-268 CNS = tested on: SF-268 CNS
SF-295 CNS = tested on: SF-295 CNS
SF-539 CNS = tested on: SF-539 CNS
SK-MEL-2 melanoma = tested on: SK-MEL-2 melanoma
SK-MEL-28 melanoma = tested on: SK-MEL-28 melanoma
SK-MEL-5 melanoma = tested on: SK-MEL-5 melanoma
SK-OV-3 ovarian = tested on: SK-OV-3 ovarian
SN12C renal = tested on: SN12C renal
SNB-19 CNS = tested on: SNB-19 CNS
SNB-75 CNS = tested on: SNB-75 CNS
SR leukemia = tested on: SR leukemia
SW-620 colon = tested on: SW-620 colon
T-47D breast = tested on: T-47D breast
TK-10 renal = tested on: TK-10 renal
U251 CNS = tested on: U251 CNS
UACC-257 melanoma = tested on: UACC-257 melanoma
UACC-62 melanoma = tested on: UACC-62 melanoma
UO-31 renal = tested on: UO-31 renal

Measured: TGI

O=C1c2c(Br)sc(Br)c2[C@@H](O)[C@H]1O
35.3 µM: HOP-92 NSCLC
33 µM: MCF7 breast
31.8 µM: MDA-N | NCI-H460 lung
45 µM: A549 NSCLC
35.1 µM: SF-295 CNS
30.6 µM: HOP-62 NSCLC
31.4 µM: MDA-MB-231 breast
34.1 µM: LOX IMVI melanoma
30.1 µM: HCT-15 colon
28.5 µM: 786-0 renal | COLO 205 colon
33.5 µM: ACHN renal
> 36.8 µM: K-562 leukemia
> 100 µM: A498 renal | TK-10 renal
45.1 µM: KM12 colon
30 µM: RXF 393 renal
36.6 µM: OVCAR-5 ovarian
35.6 µM: BT-549 breast
4.84 µM: SR leukemia
34 µM: EKVX NSCLC
29.4 µM: SK-OV-3 ovarian
20.8 µM: U251 CNS
40.4 µM: HT29 colon
> 44.4 µM: OVCAR-8 ovarian
38.3 µM: SNB-19 CNS
32.8 µM: SN12C renal
34.4 µM: HCC-2998 colon
6.25 µM: OVCAR-3 ovarian
30.7 µM: DU-145 prostate
30.4 µM: UACC-62 melanoma
3.54 µM: NCI-H522 lung
37.7 µM: NCI-H226 lung
41 µM: SK-MEL-28 melanoma
31.6 µM: SNB-75 CNS
63.5 µM: HS 578T breast
32.6 µM: MOLT-4 leukemia | SK-MEL-2 melanoma
6.32 µM: CCRF-CEM leukemia
29.5 µM: OVCAR-4 ovarian
47.6 µM: RPMI-8226 leukemia
40.6 µM: MALME-3M melanoma
28.6 µM: HL-60(TB) leukemia
24.7 µM: SF-268 CNS
25.8 µM: MDA-MB-435
32.4 µM: HCT-116 colon | SK-MEL-5 melanoma
12.3 µM: SW-620 colon
29.3 µM: SF-539 CNS | UACC-257 melanoma
26.5 µM: M14 melanoma
56.5 µM: NCI/ADR-RES ovarian
32.3 µM: UO-31 renal
21 µM: NCI-H23 lung
43.7 µM: T-47D breast
33.7 µM: CAKI-1 renal
33.1 µM: PC-3 prostate
35.7 µM: IGROV1 ovarian

Cc1[nH]c(-c2ccccc2)c2nc(N(C)C)oc(=O)c12
> 100 µM: 786-0 renal | A498 renal | A549 NSCLC | ACHN renal | BT-549 breast | CAKI-1 renal | CCRF-CEM leukemia | COLO 205 colon | DU-145 prostate | EKVX NSCLC | HCC-2998 colon | HCT-116 colon | HCT-15 colon | HL-60(TB) leukemia | HOP-62 NSCLC | HOP-92 NSCLC | HS 578T breast | HT29 colon | IGROV1 ovarian | K-562 leukemia | KM12 colon | LOX IMVI melanoma | M14 melanoma | MALME-3M melanoma | MCF7 breast | MDA-MB-231 breast | MDA-MB-435 | MDA-N | MOLT-4 leukemia | NCI-H226 lung | NCI-H23 lung | NCI-H460 lung | NCI-H522 lung | NCI/ADR-RES ovarian | OVCAR-4 ovarian | OVCAR-5 ovarian | OVCAR-8 ovarian | PC-3 prostate | RPMI-8226 leukemia | RXF 393 renal | SF-268 CNS | SF-295 CNS | SF-539 CNS | SK-MEL-2 melanoma | SK-MEL-28 melanoma | SK-MEL-5 melanoma | SK-OV-3 ovarian | SN12C renal | SNB-19 CNS | SNB-75 CNS | SR leukemia | SW-620 colon | T-47D breast | TK-10 renal | U251 CNS | UACC-257 melanoma | UACC-62 melanoma | UO-31 renal

CC1OC(OC2C(O)C(O)C(O)C(O)C2O)C(N)CC1N=C(N)C(=O)O (stereo not given)
> 100 µM: 786-0 renal | A498 renal | A549 NSCLC | ACHN renal | BT-549 breast | CAKI-1 renal | CCRF-CEM leukemia | COLO 205 colon | DU-145 prostate | EKVX NSCLC | HCC-2998 colon | HCT-116 colon | HCT-15 colon | HL-60(TB) leukemia | HOP-62 NSCLC | HOP-92 NSCLC | HS 578T breast | HT29 colon | IGROV1 ovarian | K-562 leukemia | KM12 colon | LOX IMVI melanoma | M14 melanoma | MALME-3M melanoma | MCF7 breast | MDA-MB-231 breast | MDA-MB-435 | MDA-N | MOLT-4 leukemia | NCI-H226 lung | NCI-H23 lung | NCI-H460 lung | NCI-H522 lung | NCI/ADR-RES ovarian | OVCAR-3 ovarian | OVCAR-4 ovarian | OVCAR-5 ovarian | OVCAR-8 ovarian | PC-3 prostate | RPMI-8226 leukemia | RXF 393 renal | SF-268 CNS | SF-295 CNS | SF-539 CNS | SK-MEL-2 melanoma | SK-MEL-28 melanoma | SK-MEL-5 melanoma | SK-OV-3 ovarian | SN12C renal | SNB-19 CNS | SNB-75 CNS | SR leukemia | SW-620 colon | T-47D breast | TK-10 renal | U251 CNS | UACC-257 melanoma | UACC-62 melanoma | UO-31 renal

CC1=NN(c2nc(N)nc(/C(C#N)=C\c3ccc(-c4ccc([N+](=O)[O-])cc4)o3)n2)C(C)(C)C1
> 100 µM: 786-0 renal | A498 renal | A549 NSCLC | ACHN renal | BT-549 breast | CAKI-1 renal | CCRF-CEM leukemia | COLO 205 colon | DU-145 prostate | EKVX NSCLC | HCC-2998 colon | HCT-116 colon | HCT-15 colon | HOP-92 NSCLC | HS 578T breast | HT29 colon | IGROV1 ovarian | K-562 leukemia | KM12 colon | LOX IMVI melanoma | M14 melanoma | MALME-3M melanoma | MCF7 breast | MDA-MB-231 breast | MDA-MB-435 | MDA-N | MOLT-4 leukemia | NCI-H226 lung | NCI-H23 lung | NCI-H460 lung | NCI-H522 lung | NCI/ADR-RES ovarian | OVCAR-3 ovarian | OVCAR-4 ovarian | OVCAR-5 ovarian | OVCAR-8 ovarian | PC-3 prostate | RPMI-8226 leukemia | RXF 393 renal | SF-268 CNS | SF-295 CNS | SF-539 CNS | SK-MEL-2 melanoma | SK-MEL-28 melanoma | SK-MEL-5 melanoma | SK-OV-3 ovarian | SN12C renal | SNB-19 CNS | SR leukemia | SW-620 colon | T-47D breast | TK-10 renal | U251 CNS | UACC-257 melanoma | UACC-62 melanoma | UO-31 renal
51.6 µM: SNB-75 CNS
67.5 µM: HOP-62 NSCLC
94.7 µM: HL-60(TB) leukemia
